Experimental data reported in paper PMC5727165, “A switch in nucleotide affinity governs activation of the Src and Tec family kinases” (Scientific Reports, 2017).
“Also recorded” adds a separate entry of the source. Read-outs that look alike come from different tables or passages of the source.

Key:
Src^32K = target: T1, Src^32K (Mus musculus, UniProt P05480); assay: Differential scanning fluorimetry (thermal stability vs nucleotide concentration); type: binding
T1 construct: mouse Src^85-535 (Src^32K); GST (cleaved yes); made in house; host or cells: baculovirus-infected Sf9 insect cells, co-expressed with human Csk
Protocol: (§1) We noted that the thermal stability of Src^32K initially decreases at low concentrations of ATP, before rising again at higher concentrations. This was reproducible and correlates with autophosphorylation of Tyr416 during the course of the assay (Supplementary Fig. 4h). Thermal stabilities as a function of nucleotide concentration were measured by differential scanning fluorimetry (DSF). Samples contained 0.1 mg/ml protein in 50 mM Tris pH 7.5, 150 mM NaCl, 1 mM TCEP, and 5 mM MgCl2 with ADP, ATP, or AMPPNP concentrations ranging from 0–16 mM. Samples were measured in triplicate using a BioRad iQ™5 Multicolor Real-Time PCR Detection System. For detection of phosphorylated protein, samples were diluted and 1 ng and 15 ng were loaded to SDS-PAGE for Src and Itk proteins, respectively. Phosphorylation was measured by immunoblot.

Itk^32K L351A = target: T2, Itk^32K L351A (Homo sapiens, UniProt Q08881, L351A); assay: Fluorescence anisotropy binding of Mant-labelled nucleotides
T2 construct: Human Itk^171–620 (Itk^32K); GST (cleaved yes); made in house; host or cells: baculovirus-infected Sf9 insect cells
T2 sequence (Q08881 171-620 L351A): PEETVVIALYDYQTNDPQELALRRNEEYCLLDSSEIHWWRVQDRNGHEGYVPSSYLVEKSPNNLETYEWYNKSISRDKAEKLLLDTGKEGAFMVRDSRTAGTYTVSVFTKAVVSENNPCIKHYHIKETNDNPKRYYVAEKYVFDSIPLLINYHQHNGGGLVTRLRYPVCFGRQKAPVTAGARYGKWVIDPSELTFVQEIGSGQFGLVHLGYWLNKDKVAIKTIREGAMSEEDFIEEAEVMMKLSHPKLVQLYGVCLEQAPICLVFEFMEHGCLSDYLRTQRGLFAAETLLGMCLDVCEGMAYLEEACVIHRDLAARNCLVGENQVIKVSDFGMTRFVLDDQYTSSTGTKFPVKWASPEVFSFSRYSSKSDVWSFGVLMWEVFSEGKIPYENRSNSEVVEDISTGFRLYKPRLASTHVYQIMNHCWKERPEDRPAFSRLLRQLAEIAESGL
Text: (§2) Figure 3 An allosteric switch triggers nucleotide exchange. (a) Hydrophobic stack conservation in Src family kinases. The table illustrates the amino acid identity at each of the three positions in the hydrophobic stack in addition to the invariant tryptophan (Trp260 in Src) for all Src family kinase members. The positions are presented according to their N- to C-terminal order in the primary sequences. Where it was not possible to unambiguously determine the identity of the amino acid contributed by the SH2-kinase variable linker (V3), the residue is denoted by a question mark. (b) Small angle X-ray scattering of Itk^32K L351A (black). The scattering curve for wild type Itk^32K (cyan) is overlaid for comparison. […] (c) Rigid body modelling of Itk^32K L351A and fit to ab initio molecular envelope. Displacement of both the SH3 and SH2 domains is required for a good fit to the experimental scattering curve. (d) Determination of the binding constants of Itk^32K L351A for nucleotides by fluorescence anisotropy. […] (e) Determination of the thermal stabilities and relative binding affinities of non-phosphorylated Src^32KΔC L255A for nucleotides by differential scanning fluorimetry. […] TEXT PRINTED IN THE PICTURE: (d) Mant-ADP: Itk^32K L351A (non-phos) Kd (μM): 21.0 ± 2.1 | (d) Mant-ATP: Itk^32K L351A (non-phos) Kd (μM): 31.7 ± 2.7 | (e) ADP: Src^32KΔC L255A (non-phos) [nuc]1/2 (μM): 310 ± 20; Src^32KΔC L255A (non-phos) Tm^max (°C): 52.9; Src^32KΔC L255A (non-phos) ΔTm^max (°C): + 6.8 | (e) ATP: Src^32KΔC L255A (non-phos) [nuc]1/2 (μM): 100 ± 10; Src^32KΔC L255A (non-phos) Tm^max (°C): 54.2; Src^32KΔC L255A (non-phos) ΔTm^max (°C): + 8.1 | (e) apo: Src^32KΔC L255A (non-phos) Tm^max (°C): 46.1
To establish whether hydrophobic stack disassembly triggers a switch in nucleotide binding of the kinase domain, we measured the binding of both unphosphorylated and activation loop phosphorylated (pY511) Itk^32K L351A to ADP and ATP.
The binding constants for ADP and AMPPNP were determined for Src and Itk proteins by fluorescence anisotropy, using 2′/3′-Mant-labelled nucleotides (Jena Bioscience). Increasing concentrations of Itk^32K, Itk^L351A or Src^32K were incubated with 40 μM Mant-nucleotide in 30 mM Tris pH 7.5, 200 mM NaCl, 5 mM MgCl2, and 1 mM TCEP. Measurements were made with a Perkin Elmer LS50B fluorimeter (λex = 355 nm, λem = 447 nm) at 20 °C. For each data point 50–60 measurements, each with an integration time of 1 s, were averaged. For competition nucleotide displacement assays, 40–80 μM of protein was incubated with 40 μM Mant-ADP until equilibrium was established. Unlabelled nucleotide was titrated into the reaction and fluorescence anisotropy monitored. The equilibrium inhibition constant for the unlabelled nucleotide was calculated from the fitted curve.

Src^32KΔC L255A = target: T3, Src^32KΔC L255A (Mus musculus, UniProt P05480, L257A); assay: Differential scanning fluorimetry (thermal stability vs nucleotide concentration); type: binding; settings: Src^32KΔC L255A non-phosphorylated; DSF
T3 construct: mouse Src^85-523 (Src^32KΔC); GST (cleaved yes); made in house; host or cells: baculovirus-infected Sf9 insect cells
Text: as §2
Due to limiting protein concentrations, we were unable to obtain a binding curve by fluorescence anisotropy, so we instead used thermal stability measurements to investigate its nucleotide-binding properties. Determination of accurate binding constants from thermal stability measurements requires knowledge of the enthalpy of unfolding. However, for a given protein, the enthalpy of unfolding is independent of the ligand being tested, so comparison of the concentrations of nucleotide required for half maximal stabilisation is valid.
as §1, with “Thermal” for “We noted that the thermal stability of Src^32K initially decreases at low concentrations of ATP, before rising again at higher concentrations. This was reproducible and correlates with autophosphorylation of Tyr416 during the course of the assay (Supplementary Fig. 4h). Thermal”

## Nc1ncnc2c1ncn2[C@@H]1O[C@H](COP(=O)(O)OP(=O)(O)O)[C@@H](O)[C@H]1O [ADP]
Src^32K; Src^32K pY416, vs ATP
  thermal stabilisation compared with other nucleotides: higher thermal stability with ADP than ATP
Src^32K; Src^32K, same nucleotide concentrations, vs ATP or AMPPNP
  thermal stabilisation compared with other nucleotides: to a greater extent; also recorded: higher thermal stability
Itk^32K L351A; Itk^32K L351A non-phosphorylated, read-out: Kd
  Kd: 21 µM
Itk^32K L351A; activation loop-phosphorylated (pTyr511) Itk^32K L351A, read-out: Kd (binding constant)
  Kd: 30 µM
Src^32KΔC L255A
  Tm^max: 52.9 °C
  [nuc]1/2 (nucleotide concentration for half maximal stabilisation): 310 ± 20 µM
